# Test results reported in US12503438B2, “Compounds for the treatment of kinase-dependent disorders” (Exelixis, Inc., priority 2019, dated 2025).
# What was measured:
# [1] = target: KDR (Homo sapiens, UniProt P35968); assay: Human KDR kinase assay (33P-phosphoryl transfer radiometric, KinaseProfiler); parameters: Human KDR (residues K790-V1356, 55 nM); purchased Eurofins Pharma Discovery Services UK Limited (KinaseProfiler service); conditions: biochemical activity; 10 μM ATP
# Procedure: (§1) Kinase activity and compound inhibition were investigated using the ^33P-Phosphoryl transfer radiometric kinase assay, performed using the KinaseProfiler™ service of Eurofins Pharma Discovery Services UK Limited. Dose-response experiments were performed using nine compound concentrations in a 96-well microtiter plate. For each assay, all compounds were prepared to a 50× final assay concentration (50 μM) in 100% DMSO, then diluted in a half-log series, with the final top concentration at 1 μM. This working stock of the compound was added to the assay well as the first component in the reaction, followed by the remaining components as detailed in the following assay protocols below. The positive control wells (100% kinase activity) contain all components of the reaction including 2% DMSO (control for solvent effects), except the compound of interest. Blank wells contain all components of the reaction, with the reference inhibitor, staurosporine. This reference compound was used to abolish kinase activity and generated the 0% kinase activity base-line. IC50 values were calculated by nonlinear regression analysis using the sigmoidal dose-response (variable slope) curve fit on XLFit version 5.3 (ID Business Solutions).
# (§2) Human KDR (residues K790-V1356, 55 nM) was incubated with 8 mM MOPS pH 7.0, 0.2 mM EDTA, 0.33 mg/mL myelin basic protein, 10 mM magnesium acetate, and 10 μM [γ-^33P-ATP]. The reaction was initiated by the addition of the Mg/ATP mix. After incubation for 40 minutes at room temperature, the reaction was stopped by the addition of phosphoric acid to a concentration of 0.5%. A reaction aliquot of 10 μL was then spotted onto a P30 filtermat and washed four times for 4 minutes in 0.425% phosphoric acid and once in methanol prior to drying and scintillation counting. Incorporated ^33P was measured using the Wallac Microbeta scintillation counter (Perkin Elmer).
# [2] = target: T1, Human Axl (Homo sapiens, UniProt P30530, Q764R); assay: Human AXL kinase assay (33P-phosphoryl transfer radiometric, KinaseProfiler); conditions: biochemical activity; 10 μM ATP
# T1 construct: Human Axl (residues H473-A894 with Q764R, 161 nM); purchased Eurofins Pharma Discovery Services UK Limited (KinaseProfiler service)
# T1 sequence (P30530 473-894 Q764R): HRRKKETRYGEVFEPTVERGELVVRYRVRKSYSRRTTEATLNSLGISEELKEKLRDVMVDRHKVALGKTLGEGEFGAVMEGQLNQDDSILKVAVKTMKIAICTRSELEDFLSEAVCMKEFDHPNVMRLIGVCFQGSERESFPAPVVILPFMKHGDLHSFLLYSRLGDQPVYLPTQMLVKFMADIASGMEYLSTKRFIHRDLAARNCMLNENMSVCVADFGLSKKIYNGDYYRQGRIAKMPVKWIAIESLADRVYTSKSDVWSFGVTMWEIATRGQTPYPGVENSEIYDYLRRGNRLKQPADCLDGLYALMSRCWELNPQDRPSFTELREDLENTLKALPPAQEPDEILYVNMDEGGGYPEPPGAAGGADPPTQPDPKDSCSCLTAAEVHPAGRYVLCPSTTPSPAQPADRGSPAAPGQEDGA
# Procedure: as §1
# as §2, with “Axl” for “KDR”, “H473-A894 with Q764R, 161” for “K790-V1356, 55”, “250 μM KKSRGDYMTMQIG,” for “0.33 mg/mL myelin basic protein,”, “[y-^33P-ATP].” for “[γ-^33P-ATP].”
# [3] = target: Met (Homo sapiens, UniProt P08581); assay: Human Met kinase assay (33P-phosphoryl transfer radiometric, KinaseProfiler); parameters: Human Met (residues R974-S1390 with A1209G and V1290L, 3.4 nM); purchased Eurofins Pharma Discovery Services UK Limited (KinaseProfiler service); conditions: biochemical activity; 10 μM ATP; read-out: c-Met IC50
# Procedure: as §1
# as §2, with “Met” for “KDR”, “R974-S1390 with A1209G and V1290L, 3.4” for “K790-V1356, 55”, “250 μM KKKGQEEEYVFIE, 1 mM sodium orthovanadate, 5 mM […],” for “0.33 mg/mL myelin basic protein,”
# [4] = target: T2, Human Mer (Homo sapiens, UniProt Q12866); assay: Human Mer kinase assay (33P-phosphoryl transfer radiometric, KinaseProfiler); conditions: biochemical activity; 10 μM ATP
# T2 construct: Human Mer (residues R557-E882 with H628Q and R794A, 0.7 nM); purchased Eurofins Pharma Discovery Services UK Limited (KinaseProfiler service)
# T2 sequence (Q12866 557-882 limits assumed): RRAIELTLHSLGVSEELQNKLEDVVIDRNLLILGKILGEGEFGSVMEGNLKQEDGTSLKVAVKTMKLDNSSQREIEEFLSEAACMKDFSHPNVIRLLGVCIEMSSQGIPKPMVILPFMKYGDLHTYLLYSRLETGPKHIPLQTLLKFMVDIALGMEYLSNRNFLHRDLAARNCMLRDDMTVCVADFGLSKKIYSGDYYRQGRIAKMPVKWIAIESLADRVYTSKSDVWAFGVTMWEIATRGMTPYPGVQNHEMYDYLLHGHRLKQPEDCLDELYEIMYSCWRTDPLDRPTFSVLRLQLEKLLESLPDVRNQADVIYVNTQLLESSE
# Procedure: as §1
# as §2, with “Mer” for “KDR”, “R557-E882 with H628Q and R794A, 0.7” for “K790-V1356, 55”, “30 mM NaCl, 250 μM GGMEDIYFEFMGGKKK,” for “0.33 mg/mL myelin basic protein,”, “acetate” for “acetate,”, “[y-^33P-ATP].” for “[γ-^33P-ATP].”
# Chain of Met (P08581 974-1390): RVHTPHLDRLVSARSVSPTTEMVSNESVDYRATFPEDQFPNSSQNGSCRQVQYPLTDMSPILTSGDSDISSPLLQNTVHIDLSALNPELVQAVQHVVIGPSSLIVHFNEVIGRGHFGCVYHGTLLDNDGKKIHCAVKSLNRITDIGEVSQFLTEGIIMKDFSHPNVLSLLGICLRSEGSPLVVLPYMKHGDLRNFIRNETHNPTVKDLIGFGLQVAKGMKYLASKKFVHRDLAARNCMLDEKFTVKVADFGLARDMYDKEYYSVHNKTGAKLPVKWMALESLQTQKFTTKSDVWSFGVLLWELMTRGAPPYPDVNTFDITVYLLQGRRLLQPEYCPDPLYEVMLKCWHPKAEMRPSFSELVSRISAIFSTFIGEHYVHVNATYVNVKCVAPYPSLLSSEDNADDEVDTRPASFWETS
# Chain of KDR (P35968 790-1356): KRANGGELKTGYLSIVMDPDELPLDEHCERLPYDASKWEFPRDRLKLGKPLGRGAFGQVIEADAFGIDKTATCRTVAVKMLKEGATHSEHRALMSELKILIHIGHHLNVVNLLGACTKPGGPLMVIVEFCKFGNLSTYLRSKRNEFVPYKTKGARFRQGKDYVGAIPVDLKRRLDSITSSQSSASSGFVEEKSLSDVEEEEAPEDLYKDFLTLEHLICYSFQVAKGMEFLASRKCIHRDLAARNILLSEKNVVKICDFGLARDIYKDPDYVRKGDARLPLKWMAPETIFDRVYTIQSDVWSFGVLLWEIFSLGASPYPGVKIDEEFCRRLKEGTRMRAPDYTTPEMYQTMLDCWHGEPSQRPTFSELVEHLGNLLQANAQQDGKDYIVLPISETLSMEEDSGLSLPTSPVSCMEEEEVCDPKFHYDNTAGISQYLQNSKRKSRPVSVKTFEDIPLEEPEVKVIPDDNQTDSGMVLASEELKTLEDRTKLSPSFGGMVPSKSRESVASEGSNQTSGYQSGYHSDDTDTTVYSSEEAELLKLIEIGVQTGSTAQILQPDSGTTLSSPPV
Compound,IC50 [1] [nM],IC50 [2] [nM],IC50 [3] [nM],IC50 [4] [nM]
"O=C(Nc1ccc(F)cc1)C1(C(=O)Nc2ccc(Oc3ccnc4cc(-c5cnn(C(F)(F)F)c5)ccc34)cc2)CC1 [Compound 12, 1-N′-(4-Fluorophenyl)-1-N-[4-[7-[1-(trifluoromethyl)pyrazol-4-yl]quinolin-4-yl]oxyphenyl]cyclopropane-1,1-dicarboxamide]",10 to 100,10 to 100,10 to 100,≤ 10
"O=C(Nc1ccc(F)cc1)C1(C(=O)Nc2ccc(Oc3ccnc4cc(-c5cnn(C(F)F)c5)ccc34)cc2)CC1 [Compound 13, 1-N-[4-[7-[1-(Difluoromethyl)pyrazol-4-yl]quinolin-4-yl]oxyphenyl]-1-N′-(4-fluorophenyl)cyclopropane-1,1-dicarboxamide]",10 to 100,10 to 100,≤ 10,≤ 10
"O=C(Nc1ccc(F)cc1)C1(C(=O)Nc2ccc(Oc3ccnc4cc(-c5cnn(CC(F)(F)F)c5)ccc34)cc2)CC1 [Compound 16, 1-N′-(4-Fluorophenyl)-1-N-[4-[7-[1-(2,2,2-trifluoroethyl)pyrazol-4-yl]quinolin-4-yl]oxyphenyl]cyclopropane-1,1-dicarboxamide]",10 to 100,10 to 100,10 to 100,≤ 10
"Cn1ccc(-c2ccc3c(Oc4ccc(NC(=O)C5(C(=O)Nc6ccc(F)cc6)CC5)cc4)ccnc3c2)n1 [Compound 17, 1-N′-(4-Fluorophenyl)-1-N-[4-[7-(1-methylpyrazol-3-yl)quinolin-4-yl]oxyphenyl]cyclopropane-1,1-dicarboxamide]",10 to 100,10 to 100,≤ 10,≤ 10
"O=C(Nc1ccc(F)cc1)C1(C(=O)Nc2ccc(Oc3ccnc4cc(-c5cnn(CCN6CCOCC6)c5)ccc34)cc2)CC1 [Compound 19, 1-N′-(4-Fluorophenyl)-1-N-[4-[7-[1-(2-morpholin-4-ylethyl)pyrazol-4-yl]quinolin-4-yl]oxyphenyl]cyclopropane-1,1-dicarboxamide]",10 to 100,≤ 10,≤ 10,≤ 10
"O=C(Nc1ccc(F)cc1)C1(C(=O)Nc2ccc(Oc3ccnc4cc(-c5cnn(C6CC6)c5)ccc34)cc2)CC1 [Compound 22, 1-N-[4-[7-(1-Cyclopropylpyrazol-4-yl)quinolin-4-yl]oxyphenyl]-1-N′-(4-fluorophenyl)cyclopropane-1,1-dicarboxamide]",10 to 100,10 to 100,≤ 10,≤ 10
"CC(C)(C)n1cc(-c2ccc3c(Oc4ccc(NC(=O)C5(C(=O)Nc6ccc(F)cc6)CC5)cc4)ccnc3c2)cn1 [Compound 23, 1-N-[4-[7-(1-tert-Butylpyrazol-4-yl)quinolin-4-yl]oxyphenyl]-1-N′-(4-fluorophenyl)cyclopropane-1,1-dicarboxamide]",10 to 100,10 to 100,10 to 100,≤ 10

# Other lines, results leading:
IC50 [1] [nM],IC50 [2] [nM],IC50 [3] [nM],IC50 [4] [nM],Compound
10 to 100,≤ 10,10 to 100,≤ 10,"COCCn1cc(-c2ccc3c(Oc4ccc(NC(=O)C5(C(=O)Nc6ccc(F)cc6)CC5)cc4)ccnc3c2)cn1 [Compound 10, 1-N′-(4-Fluorophenyl)-1-N-[4-[7-[1-(2-methoxyethyl)pyrazol-4-yl]quinolin-4-yl]oxyphenyl]cyclopropane-1,1-dicarboxamide]"
10 to 100,≤ 10,≤ 10,≤ 10,"Cn1cc(-c2ccc3c(Oc4ccc(NC(=O)C5(C(=O)Nc6ccc(F)cc6)CC5)cc4)ccnc3c2)cn1 [Compound 11, 1-N′-(4-Fluorophenyl)-1-N-[4-[7-(1-methylpyrazol-4-yl)quinolin-4-yl]oxyphenyl]cyclopropane-1,1-dicarboxamide]"
10 to 100,≤ 10,≤ 10,≤ 10,"O=C(Nc1ccc(F)cc1)C1(C(=O)Nc2ccc(Oc3ccnc4cc(-c5cnn(CCF)c5)ccc34)cc2)CC1 [Compound 14, 1-N-[4-[7-[1-(2-Fluoroethyl)pyrazol-4-yl]quinolin-4-yl]oxyphenyl]-1-N′-(4-fluorophenyl)cyclopropane-1,1-dicarboxamide]"
10 to 100,≤ 10,≤ 10,≤ 10,"O=C(Nc1ccc(F)cc1)C1(C(=O)Nc2ccc(Oc3ccnc4cc(-c5cnn(CC(F)F)c5)ccc34)cc2)CC1 [Compound 15, 1-N-[4-[7-[1-(2,2-Difluoroethyl)pyrazol-4-yl]quinolin-4-yl]oxyphenyl]-1-N′-(4-fluorophenyl)cyclopropane-1,1-dicarboxamide]"
≤ 10,≤ 10,≤ 10,≤ 10,"O=C(Nc1ccc(F)cc1)C1(C(=O)Nc2ccc(Oc3ccnc4cc(-c5cnn(CCO)c5)ccc34)cc2)CC1 [Compound 18, 1-N′-(4-Fluorophenyl)-1-N-[4-[7-[1-(2-hydroxyethyl)pyrazol-4-yl]quinolin-4-yl]oxyphenyl]cyclopropane-1,1-dicarboxamide]"
10 to 100,≤ 10,≤ 10,≤ 10,"CCn1cc(-c2ccc3c(Oc4ccc(NC(=O)C5(C(=O)Nc6ccc(F)cc6)CC5)cc4)ccnc3c2)cn1 [Compound 20, 1-N-[4-[7-(1-Ethylpyrazol-4-yl)quinolin-4-yl]oxyphenyl]-1-N′-(4-fluorophenyl)cyclopropane-1,1-dicarboxamide]"
